# Assay results taken from the Kinase Knowledgebase extract (Sharma et al. 2016).
# Target: MAPK14 (UniProt Q16539)
# Experiment: Inhibition of MAPK14 Kinase Activity
# Sequence of MAPK14 (Q16539 whole entry, looked up): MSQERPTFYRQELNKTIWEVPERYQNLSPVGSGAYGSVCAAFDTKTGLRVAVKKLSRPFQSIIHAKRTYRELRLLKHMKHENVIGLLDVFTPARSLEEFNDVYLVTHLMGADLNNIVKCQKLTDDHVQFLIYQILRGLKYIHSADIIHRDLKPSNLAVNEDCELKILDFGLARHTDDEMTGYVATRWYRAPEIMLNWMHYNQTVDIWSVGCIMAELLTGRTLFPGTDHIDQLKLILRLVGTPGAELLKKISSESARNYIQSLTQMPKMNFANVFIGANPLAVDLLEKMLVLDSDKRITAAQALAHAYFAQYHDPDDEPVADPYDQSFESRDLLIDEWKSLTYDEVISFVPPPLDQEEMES
row,IC50,Structure (SMILES)
1,≤ 5 µM,Cc1nc(-c2ccc3nc(N)n(S(=O)(=O)C(C)C)c3c2)c(-c2ccc(F)cc2)[nH]1
2,≤ 5 µM,Clc1nc2ccc(-c3c(-c4ccccc4)ncn3C3CCCCC3)cc2s1
3,≤ 5 µM,CC(C)S(=O)(=O)n1c(N)nc2ccc(-c3c(-c4ccccc4F)nc(N)n3C3CC3)cc21
4,≤ 5 µM,CC(C)S(=O)(=O)n1c(N)nc2ccc(-c3nc(CNCCN4CCCCC4)[nH]c3-c3ccccc3)cc21
5,≤ 5 µM,CC(C)S(=O)(=O)n1c(N)nc2ccc(-c3nc(-c4c(Cl)cccc4Cl)[nH]c3-c3ccccc3)cc21
6,≤ 5 µM,CC(C)S(=O)(=O)n1c(N)nc2ccc(-c3c(-c4ccccc4)ncn3CCO)cc21
7,≤ 5 µM,CC(C)S(=O)(=O)n1c(N)nc2ccc(-c3nc(-c4ccc([N+](=O)[O-])s4)[nH]c3-c3ccccc3)cc21
8,≤ 5 µM,CC(C)S(=O)(=O)n1c(N)nc2ccc(-c3nc(C(F)(F)F)[nH]c3-c3ccccc3)cc21
9,≤ 5 µM,CC(C)S(=O)(=O)n1c(N)nc2ccc(-c3nc(-c4c(F)cccc4F)n(C)c3-c3ccccc3)cc21
10,≤ 5 µM,CC(C)S(=O)(=O)n1c(N)nc2ccc(-c3nc(-c4ccc5c(c4)OCO5)[nH]c3-c3ccccc3)cc21
11,≤ 5 µM,CC(C)S(=O)(=O)n1c(N)nc2ccc(-c3c(-c4ccc(F)cc4)ncn3C3CCN(C(=O)OC(C)(C)C)CC3)cc21
12,≤ 5 µM,CC(C)S(=O)(=O)n1c(N)nc2ccc(-c3[nH]n(-c4ccccc4)c(=O)c3-c3ccccc3)cc21
13,≤ 5 µM,CC(C)S(=O)(=O)n1c(N)nc2ccc(-c3c(-c4ccccc4)ncn3Cc3ccccc3F)cc21
14,≤ 5 µM,Cc1nc(-c2ccc3nc(N)n(S(=O)(=O)C(C)C)c3c2)c(-c2ccccc2)[nH]1

# Second part, the compound before the results:
row,Structure (SMILES),IC50
1,CC(C)S(=O)(=O)n1c(N)nc2ccc(-c3nc(-c4c(F)cccc4F)[nH]c3-c3ccc(F)cc3)cc21,≤ 5 µM
2,CC(C)S(=O)(=O)n1c(N)nc2ccc(-c3nc(C4CCCCC4)[nH]c3-c3ccc(F)cc3)cc21,≤ 5 µM
3,CC(C)S(=O)(=O)n1c(N)nc2ccc(-c3c(-c4ccccc4F)nc(C#CCCO)n3C3CC3)cc21,≤ 5 µM
4,CC(C)S(=O)(=O)n1c(N)nc2ccc(-c3nc(-c4ccc(N)cc4)[nH]c3-c3ccccc3)cc21,≤ 5 µM
5,CC(C)S(=O)(=O)n1c(N)nc2ccc(-c3nc(-c4cccc(OCCN(C)C)c4)[nH]c3-c3ccccc3)cc21,≤ 5 µM
6,CC(C)S(=O)(=O)n1c(N)nc2ccc(-c3c(-c4ccccc4)ncn3CCNC(=O)OC(C)(C)C)cc21,≤ 5 µM
7,CC(C)S(=O)(=O)n1c(N)nc2ccc(-c3nc(-c4cccc(C(F)(F)F)c4)[nH]c3-c3ccccc3)cc21,≤ 5 µM
8,CC(C)S(=O)(=O)n1c(N)nc2ccc(-c3nc(-c4cccc(OCCN5CCOCC5)c4)[nH]c3-c3ccccc3)cc21,≤ 5 µM
9,CC(C)S(=O)(=O)n1c(N)nc2ccc(-c3nc(-c4cccnc4)[nH]c3-c3ccccc3)cc21,≤ 5 µM
10,CC(C)S(=O)(=O)n1c(N)nc2ccc(-c3nc(C4CCN(Cc5ccccn5)CC4)[nH]c3-c3ccccc3)cc21,≤ 5 µM
11,CC(C)S(=O)(=O)n1c(N)nc2ccc(-c3nc(-c4cccc(OCCN5CCCCC5)c4)[nH]c3-c3ccccc3)cc21,≤ 5 µM
12,Cc1cc(F)ccc1-c1[nH]c(-c2ccc(F)cc2)nc1-c1ccc2nc(N)n(S(=O)(=O)C(C)C)c2c1,≤ 5 µM
13,CC(C)S(=O)(=O)n1c(N)nc2ccc(-c3c(-c4ccccc4F)ncn3Cc3cccnc3)cc21,≤ 5 µM
14,CC(C)S(=O)(=O)n1c(N)nc2ccc(-c3nc(C4CCOCC4)[nH]c3-c3ccccc3)cc21,≤ 5 µM
15,CC(C)S(=O)(=O)n1c(N)nc2ccc(-c3c(-c4ccccc4)ncn3[C@@H](CO)c3ccccc3)cc21,≤ 5 µM
16,CC(C)S(=O)(=O)n1c(N)nc2ccc(-c3c(-c4ccccc4F)ncn3[C@H]3CC[C@H](O)CC3)cc21,≤ 5 µM
17,CCc1nc(-c2ccccc2F)c(-c2ccc3nc(N)n(S(=O)(=O)C(C)C)c3c2)n1C1CC1,≤ 5 µM
18,CC(C)S(=O)(=O)n1c(N)nc2ccc(-c3nc(-c4ccc(F)cc4F)[nH]c3-c3ccc(F)cc3F)cc21,≤ 5 µM
19,CCOC(=O)N1CCC(n2cnc(-c3cccc(F)c3)c2-c2ccc3nc(N)n(S(=O)(=O)C(C)C)c3c2)CC1,≤ 5 µM
